Here are results for 13 molecules from US9688699B2, “3-(pyrimidine-2-yl)imidazo[1,2-a]pyridines” (Bayer Pharma Aktiengesellschaft, priority 2014, dated 2017).

Structures can show the parent of a compound that is named as a salt.

Assay [1] addresses T1, recombinant guanylate cyclase reporter cell line (Rattus norvegicus, UniProt P19686+P20595).
T1 construct: expressed in transfected cells
T1 sequence (P19686 1-690): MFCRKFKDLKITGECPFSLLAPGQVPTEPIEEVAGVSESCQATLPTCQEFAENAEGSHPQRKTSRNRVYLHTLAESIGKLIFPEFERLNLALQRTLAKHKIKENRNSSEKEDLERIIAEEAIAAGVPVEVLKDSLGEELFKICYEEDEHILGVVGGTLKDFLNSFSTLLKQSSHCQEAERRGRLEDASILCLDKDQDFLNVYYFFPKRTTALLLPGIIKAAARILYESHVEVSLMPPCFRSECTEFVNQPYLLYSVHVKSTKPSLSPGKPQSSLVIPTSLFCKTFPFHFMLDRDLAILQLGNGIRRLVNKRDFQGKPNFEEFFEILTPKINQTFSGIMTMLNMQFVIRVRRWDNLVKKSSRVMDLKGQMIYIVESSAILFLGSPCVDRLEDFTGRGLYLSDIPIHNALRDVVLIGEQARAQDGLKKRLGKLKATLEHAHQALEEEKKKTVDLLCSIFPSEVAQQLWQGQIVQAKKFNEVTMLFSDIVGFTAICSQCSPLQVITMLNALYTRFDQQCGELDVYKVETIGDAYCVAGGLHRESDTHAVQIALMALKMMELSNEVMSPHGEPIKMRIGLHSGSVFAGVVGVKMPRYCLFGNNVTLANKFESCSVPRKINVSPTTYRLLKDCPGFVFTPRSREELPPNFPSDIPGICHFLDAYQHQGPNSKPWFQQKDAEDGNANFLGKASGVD
T1 sequence (P20595 1-619): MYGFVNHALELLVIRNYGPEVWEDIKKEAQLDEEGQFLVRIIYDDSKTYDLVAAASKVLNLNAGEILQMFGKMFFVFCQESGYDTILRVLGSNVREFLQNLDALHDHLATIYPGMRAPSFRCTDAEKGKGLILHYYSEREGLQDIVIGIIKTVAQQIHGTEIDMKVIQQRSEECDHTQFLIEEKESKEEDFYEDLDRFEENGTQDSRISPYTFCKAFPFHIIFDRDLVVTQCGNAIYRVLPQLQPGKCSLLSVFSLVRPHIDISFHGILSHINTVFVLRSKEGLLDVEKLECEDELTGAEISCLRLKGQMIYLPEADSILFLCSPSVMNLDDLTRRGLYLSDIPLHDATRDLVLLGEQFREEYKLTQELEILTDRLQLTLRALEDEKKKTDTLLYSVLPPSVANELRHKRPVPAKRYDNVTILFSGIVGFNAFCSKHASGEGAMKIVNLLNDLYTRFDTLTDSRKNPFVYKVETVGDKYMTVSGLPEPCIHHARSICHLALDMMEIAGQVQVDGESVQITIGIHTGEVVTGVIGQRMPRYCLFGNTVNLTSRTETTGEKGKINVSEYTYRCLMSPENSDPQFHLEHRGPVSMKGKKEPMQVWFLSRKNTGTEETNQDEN
The assay is described as follows: Effect on a recombinant guanylate cyclase reporter cell line (B-2). It is filed as cell-based. As to conditions: MEC = minimum effective concentration, in some cases mean values for individual determinations. As to the method: B-2. Effect on a Recombinant Guanylate Cyclase Reporter Cell Line
The cellular activity of the compounds according to the invention is determined using a recombinant guanylate cyclase reporter cell line, as described in F. Wunder et al., Anal. Biochem. 339, 104-112 (2005).
Representative MEC values (MEC=minimum effective concentration) for the compounds of the invention are shown in Table 1 below (in some cases as mean values for individual determinations): […]

Assay [2] concerns the target T2, human phosphodiesterase 5 (PDE 5) (Homo sapiens, UniProt O76074).
T2 construct: PDE 5 preparations are obtained from human platelets by disruption; from tissue; host or cells: human platelets (Mono Q ion exchange fractions with PDE 5 activity)
The assay is described as follows: Inhibition of human phosphodiesterase 5 (PDE 5) (B-3). Format: biochemical. As to conditions: PDE 5 preparation from human platelets; [8-3H] cGMP substrate, SPA; in some cases means of individual determinations. The method, then: B-3. Inhibition of Human Phosphodiesterase 5 (PDE 5)
PDE 5 preparations are obtained from human platelets by disruption (Microfluidizer®, 800 bar, 3 passes), followed by centrifugation (75 000 g, 60 min, 4° C.) and ion exchange chromatography of the supernatant on a Mono Q 10/10 column (linear sodium chloride gradient, elution with a 0.2-0.3M solution of sodium chloride in buffer (20 mM Hepes pH 7.2, 2 mM magnesium chloride). Fractions having PDE 5 activity are combined (PDE 5 preparation) and stored at −80° C.
To determine their in vitro action on human PDE 5, the test substances are dissolved in 100% DMSO and serially diluted. Typically, dilution series (1:3) from 200 μM to 0.091 μM are prepared (resulting final concentrations in the test: 4 μM to 0.0018 μM). In each case 2 μl of the diluted substance solutions are placed into the wells of microtitre plates (Isoplate-96/200 W; Perkin Elmer). Subsequently, 50 μl of a dilution of the above-described PDE 5 preparation are added. The dilution of the PDE 5 preparation is chosen such that during the later incubation less than 70% of the substrate are converted (typical dilution: 1:100; dilution buffer: 50 mM tris/hydrochloric acid pH 7.5, 8.3 mM magnesium chloride, 1.7 mM EDTA, 0.2% BSA). The substrate, [8-^3H] cyclic guanosine-3′,5′-monophosphate (1 μCi/μl; Perkin Elmer), is diluted 1:2000 with assay buffer (50 mM tris/hydrochloric acid pH 7.5, 8.3 mM magnesium chloride, 1.7 mM EDTA) to a concentration of 0.0005 μCi/μl. By addition of 50 μl (0.025 μCi) of the diluted substrate, the enzyme reaction is finally started. The test mixtures are incubated at room temperature for 60 min and the reaction is stopped by adding 25 μl of a suspension of 18 mg/ml yttrium scintillation proximity beads in water (phosphodiesterase beads for SPA assays, RPNQ 0150, Perkin Elmer). The microtitre plates are sealed with a film and left to stand at room temperature for 60 min. Subsequently, the plates are analysed for 30 s per well in a Microbeta scintillation counter (Perkin Elmer). IC50 values are determined using the graphic plot of the substance concentration against percentage PDE 5 inhibition.

`Cc1nc2c(OCc3c(F)ccc(F)c3F)cccn2c1-c1nc2c(c(C(=O)N3CCC(O)C3)n1)C(C)(C)C(=O)N2` (racemic) [Example 62, rac-4-[(3-hydroxypyrrolidin-1-yl)carbonyl]-5,5-dimethyl-2-{2-methyl-8-[(2,3,6-trifluorobenzyl)oxy]imidazo[1,2-a]pyridin-3-yl}-5,7-dihydro-6H-pyrrolo[2,3-d]pyrimidin-6-one]: the MEC in assay [1] was 3 µM. This molecule came in with an IC50 in assay [2] of 400 nM.

In the case of `Cc1nc2c(OCc3c(F)cccc3F)cccn2c1-c1nc2c(c(Oc3cn[nH]c3)n1)C(C)(C)C(=O)N2` [Example 44, 2-{8-[(2,6-Difluorobenzyl)oxy]-2-methylimidazo[1,2-a]pyridin-3-yl}-5,5-dimethyl-4-(1H-pyrazol-4-yloxy)-5,7-dihydro-6H-pyrrolo[2,3-d]pyrimidin-6-one], in assay [1], the MEC was found to be 1 µM. The same molecule showed an IC50 in assay [2] of 1.5 nM.

For `Cc1nc2c(OCc3c(F)ccc(F)c3F)cccn2c1-c1nc2c(c(C(=O)NCCC(F)(F)F)n1)C(C)(C)C(=O)N2` [Example 59, 5,5-dimethyl-2-{2-methyl-8-[(2,3,6-trifluorobenzyl)oxy]imidazo[1,2-a]pyridin-3-yl}-6-oxo-N-(3,3,3-trifluoropropyl)-6,7-dihydro-5H-pyrrolo[2,3-d]pyrimidine-4-carboxamide], the MEC in assay [1] stood at 0.3 µM. In assay [2], this molecule registered an IC50 of 1.7 nM.

With `Cc1nc2c(OCc3c(F)cccc3F)cccn2c1-c1nc2c(c(C(=O)NCC(C)(C)O)n1)C(C)(C)C(=O)N2` [Example 56, 2-{8-[(2,6-difluorobenzyl)oxy]-2-methylimidazo[1,2-a]pyridin-3-yl}-N-(2-hydroxy-2-methylpropyl)-5,5-dimethyl-6-oxo-6,7-dihydro-5H-pyrrolo[2,3-d]pyrimidine-4-carboxamide], the MEC in assay [1] is 0.3 µM. In addition, in assay [2], the IC50 came to 1.3 nM.

Take `Cc1nc2c(OCc3c(F)cccc3F)cccn2c1-c1nc2c(c(N3C[C@H]4C[C@@]4(N)C3)n1)C(C)(C)C(=O)N2` (relative stereo) [Example 32, rac-rel-4-[(1R,5S)-1-amino-3-azabicyclo[3.1.0]hex-3-yl]-2-{8-[(2,6-difluorobenzyl)oxy]-2-methylimidazo[1,2-a]pyridin-3-yl}-5,5-dimethyl-5,7-dihydro-6H-pyrrolo[2,3-d]pyrimidin-6-one formate]: the MEC in assay [1] was determined as 1 µM. Inhibition in assay [2] was half-maximal at 11 nM (IC50).

Consider `Cc1nc2c(OCc3c(F)ccc(F)c3F)cccn2c1-c1nc2c(c(C(N)=O)n1)C(C)(C)C(=O)N2` [Example 53, 5,5-Dimethyl-2-{2-methyl-8-[(2,3,6-trifluorobenzyl)oxy]imidazo[1,2-a]pyridin-3-yl}-6-oxo-6,7-dihydro-5H-pyrrolo[2,3-d]pyrimidine-4-carboxamide], for which the MEC in assay [1] turned out to be 0.3 µM. Further, it took 4.3 nM to reach half-maximal inhibition in assay [2] (IC50).

For `Cc1nc2c(OCc3c(F)ccc(F)c3F)cccn2c1-c1nc(N)c2c(n1)NC(=O)C2(C)C` [Example 9, 4-Amino-5,5-dimethyl-2-{2-methyl-8-[(2,3,6-trifluorobenzyl)oxy]imidazo[1,2-a]pyridin-3-yl}-5,7-dihydro-6H-pyrrolo[2,3-d]pyrimidin-6-one], in assay [1], the MEC was 1 µM. For the same molecule, the IC50 in assay [2] turned out to be 17 nM.

In the case of `Cc1nc2c(OCc3c(F)cccc3F)cccn2c1-c1nc(NCC(N)C(F)(F)C(F)F)c2c(n1)NC(=O)C2(C)C` (racemic) [Example 27, rac-4-[(2-amino-3,3,4,4-tetrafluorobutyl)amino]-2-{8-[(2,6-difluorobenzyl)oxy]-2-methylimidazo[1,2-a]pyridin-3-yl}-5,5-dimethyl-5,7-dihydro-6H-pyrrolo[2,3-d]pyrimidin-6-one], the MEC in assay [1] came out at 3 µM. In addition, in assay [2], the IC50 stood at 23 nM.

Turning to `Cc1nc2c(OCc3c(F)cccc3F)cccn2c1-c1nc(NCC2(N)CC2)c2c(n1)NC(=O)C2(C)C` [Example 42, 4-{[(1-Aminocyclopropyl)methyl]amino}-2-{8-[(2,6-difluorobenzyl)oxy]-2-methylimidazo[1,2-a]pyridin-3-yl}-5,5-dimethyl-5,7-dihydro-6H-pyrrolo[2,3-d]pyrimidin-6-one], the MEC in assay [1] came out at 0.1 µM. Also, the IC50 in assay [2] is 6 nM.

For `Cc1nc2c(OCc3c(F)cccc3F)cccn2c1-c1nc2c(c(N[C@H]3CC[C@H](O)CC3)n1)C(C)(C)C(=O)N2` [Example 15, 2-{8-[(2,6-Difluorobenzyl)oxy]-2-methylimidazo[1,2-a]pyridin-3-yl}-4-[(trans-4-hydroxycyclohexyl)amino]-5,5-dimethyl-5,7-dihydro-6H-pyrrolo[2,3-d]pyrimidin-6-one], the MEC in assay [1] came out at 3 µM. In addition, the IC50 in assay [2] was found to be 2.5 nM.

For the molecule `Cc1nc2c(OCc3c(F)ccc(F)c3F)cccn2c1-c1nc2c(c(C(=O)O)n1)C(C)(C)C(=O)N2` [Example 54, 5,5-Dimethyl-2-{2-methyl-8-[(2,3,6-trifluorobenzyl)oxy]imidazo[1,2-a]pyridin-3-yl}-6-oxo-6,7-dihydro-5H-pyrrolo[2,3-d]pyrimidine-4-carboxylic acid], the MEC in assay [1] was determined as 10 µM. In assay [2], this molecule showed an IC50 of 420 nM.

With `Cc1nc2c(OCc3c(F)cccc3F)cccn2c1-c1nc(NCCN2CCC(F)(F)C2)c2c(n1)NC(=O)C2(C)C` [Example 26, 2-{8-[(2,6-difluorobenzyl)oxy]-2-methylimidazo[1,2-a]pyridin-3-yl}-4-{[2-(3,3-difluoropyrrolidin-1-yl)ethyl]amino)-5,5-dimethyl-5,7-dihydro-6H-pyrrolo[2,3-d]pyrimidin-6-one], the MEC in assay [1] stood at 3 µM. The molecule further had an IC50 in assay [2] of 26 nM.

Regarding `Cc1nc2c(OCc3c(F)ccc(F)c3F)cccn2c1-c1nc2c(c(C(=O)N3CCNCC3)n1)C(C)(C)C(=O)N2` [Example 64, 5,5-dimethyl-2-{2-methyl-8-[(2,3,6-trifluorobenzyl)oxy]imidazo[1,2-a]pyridin-3-yl}-4-(piperazin-1-ylcarbonyl)-5,7-dihydro-6H-pyrrolo[2,3-d]pyrimidin-6-one trifluoroacetate], the MEC in assay [1] was found to be 10 µM. This molecule also came in with an IC50 in assay [2] of 28 nM.
